Some targets named below: D(1A) dopamine receptor (Homo sapiens, UniProt P21728); D(3) dopamine receptor (Homo sapiens, UniProt P35462); Histamine H3 receptor (Homo sapiens, UniProt Q9Y5N1); Mu-type opioid receptor (Homo sapiens, UniProt P35372).
The target of assay [1] is Voltage-gated inwardly rectifying potassium channel KCNH2 (Homo sapiens, UniProt Q12809). In kind it is functional.
Assay [2] deals with T1, 5-hydroxytryptamine receptor 1A (Homo sapiens, UniProt P08908).
T1 sequence (P08908 whole entry): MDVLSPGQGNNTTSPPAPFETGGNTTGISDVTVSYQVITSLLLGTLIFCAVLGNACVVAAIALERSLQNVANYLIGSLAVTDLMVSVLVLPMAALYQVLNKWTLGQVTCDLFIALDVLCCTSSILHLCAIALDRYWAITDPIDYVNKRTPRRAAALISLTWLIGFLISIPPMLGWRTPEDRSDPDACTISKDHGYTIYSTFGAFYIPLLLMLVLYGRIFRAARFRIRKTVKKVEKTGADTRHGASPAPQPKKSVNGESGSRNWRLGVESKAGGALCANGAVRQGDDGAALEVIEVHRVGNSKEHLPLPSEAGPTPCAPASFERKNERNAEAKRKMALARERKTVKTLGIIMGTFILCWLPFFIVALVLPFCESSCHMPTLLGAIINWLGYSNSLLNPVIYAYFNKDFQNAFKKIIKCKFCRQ

Assay [3] deals with 3',5'-cyclic-AMP phosphodiesterase 4A (Homo sapiens, UniProt P27815). Type of assay: functional.
Assay [4] deals with Sodium-dependent noradrenaline transporter (Homo sapiens, UniProt P23975).
Another assay concerns the target T2, Progesterone receptor (Homo sapiens, UniProt P06401).
T2 sequence (P06401 whole entry): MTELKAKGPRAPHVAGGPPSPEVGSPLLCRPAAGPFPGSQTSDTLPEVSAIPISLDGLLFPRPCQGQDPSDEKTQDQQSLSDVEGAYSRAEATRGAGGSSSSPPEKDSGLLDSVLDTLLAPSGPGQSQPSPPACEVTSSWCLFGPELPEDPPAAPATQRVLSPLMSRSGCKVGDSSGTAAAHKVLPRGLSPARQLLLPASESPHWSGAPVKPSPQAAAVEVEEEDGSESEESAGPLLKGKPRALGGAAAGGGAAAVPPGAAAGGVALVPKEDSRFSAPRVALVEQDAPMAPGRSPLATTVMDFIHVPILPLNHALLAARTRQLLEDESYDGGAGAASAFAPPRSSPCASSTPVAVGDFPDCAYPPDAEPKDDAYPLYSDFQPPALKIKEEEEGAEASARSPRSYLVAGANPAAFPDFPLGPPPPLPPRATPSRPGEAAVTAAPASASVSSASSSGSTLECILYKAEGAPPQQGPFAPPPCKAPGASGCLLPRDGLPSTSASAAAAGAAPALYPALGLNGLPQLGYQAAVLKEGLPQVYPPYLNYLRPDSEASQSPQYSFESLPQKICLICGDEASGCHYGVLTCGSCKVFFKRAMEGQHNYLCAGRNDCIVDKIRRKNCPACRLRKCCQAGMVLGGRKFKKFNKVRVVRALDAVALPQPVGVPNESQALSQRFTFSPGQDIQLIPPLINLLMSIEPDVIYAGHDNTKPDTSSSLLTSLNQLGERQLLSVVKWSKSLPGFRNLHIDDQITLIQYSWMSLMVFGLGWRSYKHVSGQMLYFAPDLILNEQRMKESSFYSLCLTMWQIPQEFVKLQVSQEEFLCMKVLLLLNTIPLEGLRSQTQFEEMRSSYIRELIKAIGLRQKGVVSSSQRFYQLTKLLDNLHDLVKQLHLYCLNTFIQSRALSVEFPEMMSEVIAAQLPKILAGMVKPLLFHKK

In assay [5] the target is Sodium-dependent dopamine transporter (Homo sapiens, UniProt Q01959).
Assay [6] addresses T3, Alpha-2A adrenergic receptor (Homo sapiens, UniProt P08913).
T3 sequence (P08913 whole entry): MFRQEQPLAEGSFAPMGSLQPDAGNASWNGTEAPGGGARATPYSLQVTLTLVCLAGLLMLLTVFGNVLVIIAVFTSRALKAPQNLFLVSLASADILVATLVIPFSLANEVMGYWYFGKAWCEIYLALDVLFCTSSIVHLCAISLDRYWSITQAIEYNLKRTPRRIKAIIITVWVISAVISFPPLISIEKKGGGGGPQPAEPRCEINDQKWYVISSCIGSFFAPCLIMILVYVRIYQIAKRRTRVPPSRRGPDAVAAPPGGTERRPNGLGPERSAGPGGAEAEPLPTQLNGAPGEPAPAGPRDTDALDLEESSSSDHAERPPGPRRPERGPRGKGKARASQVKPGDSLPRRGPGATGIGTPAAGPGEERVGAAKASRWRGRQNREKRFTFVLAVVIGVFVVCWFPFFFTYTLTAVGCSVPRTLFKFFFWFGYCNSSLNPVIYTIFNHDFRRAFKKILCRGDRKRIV

Assay [7] concerns the target T4, Thromboxane A2 receptor (Homo sapiens, UniProt P21731).
T4 sequence (P21731 whole entry): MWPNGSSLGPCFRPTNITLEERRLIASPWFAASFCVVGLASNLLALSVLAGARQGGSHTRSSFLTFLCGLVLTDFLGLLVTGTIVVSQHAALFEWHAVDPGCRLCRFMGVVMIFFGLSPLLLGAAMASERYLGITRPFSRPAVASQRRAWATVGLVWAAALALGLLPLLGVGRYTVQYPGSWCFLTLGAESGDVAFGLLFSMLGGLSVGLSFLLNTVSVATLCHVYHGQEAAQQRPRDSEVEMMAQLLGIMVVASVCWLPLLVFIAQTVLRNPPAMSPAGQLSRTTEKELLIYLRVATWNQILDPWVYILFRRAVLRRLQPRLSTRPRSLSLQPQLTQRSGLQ
Type of assay: functional, cell-based.

For another assay, the target named is Prothrombin (Homo sapiens, UniProt P00734). Type of assay: functional.
The target in assay [8] is T4, Thromboxane A2 receptor. In kind it is functional, cell-based. The source holds these as a separate data set.
The target of another assay is Acetylcholinesterase (Homo sapiens, UniProt P22303). Type of assay: functional.
Assay [9] deals with 5-hydroxytryptamine receptor 2B (Homo sapiens, UniProt P41595). In kind it is functional, cell-based.
Assay [10] has as its target Prostaglandin G/H synthase 1 (Homo sapiens, UniProt P23219). Type of assay: functional.

Where only a bound is given, the exact number is not on record here.
Also: assay procedure not described here.

D(1A) dopamine receptor, sequence (P21728 whole entry): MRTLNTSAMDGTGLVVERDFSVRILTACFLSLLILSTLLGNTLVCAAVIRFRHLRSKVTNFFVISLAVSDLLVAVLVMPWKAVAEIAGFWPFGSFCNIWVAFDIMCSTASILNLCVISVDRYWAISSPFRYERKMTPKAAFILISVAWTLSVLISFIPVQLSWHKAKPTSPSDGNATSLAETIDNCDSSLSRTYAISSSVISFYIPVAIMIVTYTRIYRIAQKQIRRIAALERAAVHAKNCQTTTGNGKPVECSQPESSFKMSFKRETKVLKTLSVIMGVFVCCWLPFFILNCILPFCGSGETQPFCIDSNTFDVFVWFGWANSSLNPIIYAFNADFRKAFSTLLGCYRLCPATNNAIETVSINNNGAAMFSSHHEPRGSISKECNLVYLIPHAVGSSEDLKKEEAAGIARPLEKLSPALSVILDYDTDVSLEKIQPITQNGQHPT
D(3) dopamine receptor, sequence (P35462 whole entry): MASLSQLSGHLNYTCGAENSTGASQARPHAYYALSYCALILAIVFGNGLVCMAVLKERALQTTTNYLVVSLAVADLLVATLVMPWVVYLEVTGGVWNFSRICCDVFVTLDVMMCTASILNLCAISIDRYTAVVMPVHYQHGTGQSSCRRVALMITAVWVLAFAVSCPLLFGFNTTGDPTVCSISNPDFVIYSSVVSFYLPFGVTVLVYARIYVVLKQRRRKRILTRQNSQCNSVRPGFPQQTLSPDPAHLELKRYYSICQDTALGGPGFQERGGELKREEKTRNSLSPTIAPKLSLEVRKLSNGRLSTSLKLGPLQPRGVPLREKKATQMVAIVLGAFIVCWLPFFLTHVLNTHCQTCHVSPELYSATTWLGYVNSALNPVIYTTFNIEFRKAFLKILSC
Histamine H3 receptor, sequence (Q9Y5N1 whole entry): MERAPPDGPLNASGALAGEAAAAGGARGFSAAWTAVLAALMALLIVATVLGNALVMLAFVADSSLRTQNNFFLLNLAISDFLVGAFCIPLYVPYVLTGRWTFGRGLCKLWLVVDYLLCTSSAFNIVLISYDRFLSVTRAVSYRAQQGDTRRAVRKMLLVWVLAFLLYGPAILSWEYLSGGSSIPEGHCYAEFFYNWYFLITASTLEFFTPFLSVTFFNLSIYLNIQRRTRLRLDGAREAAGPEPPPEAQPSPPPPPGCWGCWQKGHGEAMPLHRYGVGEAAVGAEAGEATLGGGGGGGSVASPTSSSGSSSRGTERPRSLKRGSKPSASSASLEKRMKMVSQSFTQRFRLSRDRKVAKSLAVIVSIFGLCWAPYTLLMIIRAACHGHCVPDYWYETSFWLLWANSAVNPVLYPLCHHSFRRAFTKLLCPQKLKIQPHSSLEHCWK
Sodium-dependent dopamine transporter, sequence (Q01959 whole entry): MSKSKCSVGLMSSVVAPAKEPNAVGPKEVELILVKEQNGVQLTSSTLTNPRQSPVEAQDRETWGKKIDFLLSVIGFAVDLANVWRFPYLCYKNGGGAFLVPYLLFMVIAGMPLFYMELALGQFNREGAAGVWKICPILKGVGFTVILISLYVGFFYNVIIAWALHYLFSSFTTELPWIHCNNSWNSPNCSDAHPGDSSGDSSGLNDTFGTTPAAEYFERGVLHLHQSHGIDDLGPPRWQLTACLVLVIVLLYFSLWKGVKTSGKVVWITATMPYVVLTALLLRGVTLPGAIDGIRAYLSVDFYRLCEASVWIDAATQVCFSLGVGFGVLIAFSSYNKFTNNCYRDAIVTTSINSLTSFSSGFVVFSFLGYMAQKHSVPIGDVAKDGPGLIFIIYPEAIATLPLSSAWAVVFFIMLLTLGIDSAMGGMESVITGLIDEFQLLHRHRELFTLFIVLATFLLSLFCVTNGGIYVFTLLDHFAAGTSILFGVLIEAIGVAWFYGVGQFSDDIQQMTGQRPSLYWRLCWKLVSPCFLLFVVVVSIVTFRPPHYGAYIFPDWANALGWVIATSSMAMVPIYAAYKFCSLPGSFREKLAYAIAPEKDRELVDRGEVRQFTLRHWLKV
3',5'-cyclic-AMP phosphodiesterase 4A, sequence (P27815 whole entry): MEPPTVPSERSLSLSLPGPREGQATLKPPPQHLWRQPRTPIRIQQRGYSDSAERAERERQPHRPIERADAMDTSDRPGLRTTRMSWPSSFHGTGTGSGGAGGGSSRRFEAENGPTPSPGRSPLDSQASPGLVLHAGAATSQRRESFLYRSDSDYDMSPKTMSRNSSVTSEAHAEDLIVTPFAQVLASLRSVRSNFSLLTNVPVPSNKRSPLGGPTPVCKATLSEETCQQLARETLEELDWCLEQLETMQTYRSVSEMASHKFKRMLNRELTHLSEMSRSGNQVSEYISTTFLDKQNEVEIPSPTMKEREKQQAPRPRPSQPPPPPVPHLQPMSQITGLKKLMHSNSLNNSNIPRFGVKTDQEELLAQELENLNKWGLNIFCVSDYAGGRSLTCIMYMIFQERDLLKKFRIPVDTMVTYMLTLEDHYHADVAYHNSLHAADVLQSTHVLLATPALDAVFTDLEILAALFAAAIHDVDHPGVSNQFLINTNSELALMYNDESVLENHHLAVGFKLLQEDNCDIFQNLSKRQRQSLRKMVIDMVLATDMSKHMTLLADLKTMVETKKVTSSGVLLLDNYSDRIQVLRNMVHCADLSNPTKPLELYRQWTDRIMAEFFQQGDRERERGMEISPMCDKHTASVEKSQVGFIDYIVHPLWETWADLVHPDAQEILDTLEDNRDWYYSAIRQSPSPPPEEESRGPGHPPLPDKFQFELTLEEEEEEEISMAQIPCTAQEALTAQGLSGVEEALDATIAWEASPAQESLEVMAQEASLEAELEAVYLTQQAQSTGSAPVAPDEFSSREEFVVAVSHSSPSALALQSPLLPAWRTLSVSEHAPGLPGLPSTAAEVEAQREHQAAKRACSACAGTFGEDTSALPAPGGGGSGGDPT
5-hydroxytryptamine receptor 2B, sequence (P41595 whole entry): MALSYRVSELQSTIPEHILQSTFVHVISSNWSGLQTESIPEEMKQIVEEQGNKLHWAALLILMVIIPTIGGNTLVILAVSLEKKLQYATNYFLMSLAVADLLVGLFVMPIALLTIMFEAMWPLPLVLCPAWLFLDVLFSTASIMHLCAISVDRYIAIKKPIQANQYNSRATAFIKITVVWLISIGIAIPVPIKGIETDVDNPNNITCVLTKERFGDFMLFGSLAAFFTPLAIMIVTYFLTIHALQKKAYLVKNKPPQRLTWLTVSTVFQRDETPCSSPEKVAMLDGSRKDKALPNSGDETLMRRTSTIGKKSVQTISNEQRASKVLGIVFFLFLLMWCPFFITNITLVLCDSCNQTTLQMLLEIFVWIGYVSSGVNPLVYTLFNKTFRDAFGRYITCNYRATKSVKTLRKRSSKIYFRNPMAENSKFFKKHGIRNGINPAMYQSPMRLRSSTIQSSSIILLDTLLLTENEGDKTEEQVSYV
Mu-type opioid receptor, sequence (P35372 whole entry): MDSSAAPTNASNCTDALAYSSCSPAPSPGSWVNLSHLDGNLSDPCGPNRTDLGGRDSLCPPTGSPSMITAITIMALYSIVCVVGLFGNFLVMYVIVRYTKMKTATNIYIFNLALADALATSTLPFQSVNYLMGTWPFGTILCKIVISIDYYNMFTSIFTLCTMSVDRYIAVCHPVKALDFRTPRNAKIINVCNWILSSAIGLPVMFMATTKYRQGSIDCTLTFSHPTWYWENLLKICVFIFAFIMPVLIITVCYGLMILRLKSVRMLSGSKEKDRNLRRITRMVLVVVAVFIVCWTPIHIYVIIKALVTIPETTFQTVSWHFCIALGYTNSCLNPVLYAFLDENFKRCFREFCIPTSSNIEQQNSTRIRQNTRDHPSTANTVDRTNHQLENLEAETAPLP
Acetylcholinesterase, sequence (P22303 whole entry): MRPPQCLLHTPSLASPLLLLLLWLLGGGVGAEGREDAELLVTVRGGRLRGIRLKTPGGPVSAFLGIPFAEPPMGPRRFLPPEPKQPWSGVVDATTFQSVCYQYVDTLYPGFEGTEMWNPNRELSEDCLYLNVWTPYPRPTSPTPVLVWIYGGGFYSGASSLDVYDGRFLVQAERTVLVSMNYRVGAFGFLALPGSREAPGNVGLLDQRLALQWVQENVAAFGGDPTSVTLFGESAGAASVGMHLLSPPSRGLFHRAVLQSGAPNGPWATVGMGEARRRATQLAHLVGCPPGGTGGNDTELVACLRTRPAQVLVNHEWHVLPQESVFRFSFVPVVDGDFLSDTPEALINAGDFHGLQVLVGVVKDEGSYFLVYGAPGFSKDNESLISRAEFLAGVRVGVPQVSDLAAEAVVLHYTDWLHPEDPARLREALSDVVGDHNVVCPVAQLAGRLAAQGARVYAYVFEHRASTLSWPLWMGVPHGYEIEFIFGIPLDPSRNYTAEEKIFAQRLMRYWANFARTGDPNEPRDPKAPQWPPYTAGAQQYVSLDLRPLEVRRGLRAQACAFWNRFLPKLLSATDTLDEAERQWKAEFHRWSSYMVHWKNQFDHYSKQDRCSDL
Sodium-dependent noradrenaline transporter, sequence (P23975 whole entry): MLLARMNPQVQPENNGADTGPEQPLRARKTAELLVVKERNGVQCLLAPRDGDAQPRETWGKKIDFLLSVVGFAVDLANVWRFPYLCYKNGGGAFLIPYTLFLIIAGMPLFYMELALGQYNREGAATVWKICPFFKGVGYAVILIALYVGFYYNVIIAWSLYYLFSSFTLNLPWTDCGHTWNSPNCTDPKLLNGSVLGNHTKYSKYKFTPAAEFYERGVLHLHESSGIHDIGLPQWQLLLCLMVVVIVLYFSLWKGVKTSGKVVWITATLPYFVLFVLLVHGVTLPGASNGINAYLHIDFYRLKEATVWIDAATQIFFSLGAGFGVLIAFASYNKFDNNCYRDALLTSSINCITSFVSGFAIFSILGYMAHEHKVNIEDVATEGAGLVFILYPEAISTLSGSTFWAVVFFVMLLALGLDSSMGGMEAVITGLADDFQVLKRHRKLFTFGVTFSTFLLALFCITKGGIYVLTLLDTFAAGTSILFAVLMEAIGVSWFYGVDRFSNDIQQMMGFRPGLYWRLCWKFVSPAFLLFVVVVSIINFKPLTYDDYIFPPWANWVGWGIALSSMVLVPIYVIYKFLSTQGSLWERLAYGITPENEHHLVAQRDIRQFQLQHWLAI

The compound `Cc1nnc(SCC2=C(C(=O)O)N3C(=O)[C@@H](NC(=O)Cn4cnnn4)[C@H]3SC2)s1` [CEFAZOLIN] registered an AC50 in [1] greater than 300 µM.
For the compound `O=C(O)Cc1ccccc1Nc1c(Cl)cccc1Cl` [DICLOFENAC], the concentration at half-maximal activity (AC50) in [2] was greater than 3 µM; in [1], greater than 30 µM; in [3], greater than 3 µM; in assay [4] it was greater than 3 µM; on Progesterone receptor, greater than 3 µM; at D(1A) dopamine receptor, greater than 3 µM. The AC50 (in assay [5]; at D(3) dopamine receptor; in assay [6]; on Thromboxane A2 receptor [7]; on Prothrombin; at Thromboxane A2 receptor [8]) was greater than 3 µM each time. Moreover, the AC50 (at Histamine H3 receptor; on Acetylcholinesterase; in assay [9]; at Mu-type opioid receptor) was greater than 3 µM each time.
With `CC(C)[C@H](N)C(=O)OCCOCn1cnc2c(=O)[nH]c(N)nc21` [VALACYCLOVIR], the AC50 in assay [1] is greater than 30 µM.
As to `O=C1Cc2cc(CCN3CCN(c4nsc5ccccc45)CC3)c(Cl)cc2N1` [ZIPRASIDONE], the AC50 in assay [2] was 0.003 µM; in assay [10], greater than 30 µM; in [3], greater than 30 µM; in assay [4] it was 0.507 µM; at Progesterone receptor it was greater than 30 µM; in assay [5], 0.0875 µM. Also, the concentration at half-maximal activity (AC50) (at Thromboxane A2 receptor [7]; on Prothrombin; on Thromboxane A2 receptor [8]; on Histamine H3 receptor; at Acetylcholinesterase; in [9]) was greater than 30 µM each time. The same compound had an AC50 on Mu-type opioid receptor of 5.06 µM.
`CC=CC1=C(C(=O)O)N2C(=O)[C@@H](NC(=O)[C@H](N)c3ccc(O)cc3)[C@H]2SC1` [CEFPROZIL]: in [1], the concentration at half-maximal activity (AC50) was greater than 30 µM.
In the case of `CC1(C)S[C@@H]2[C@H](NC(=O)C(C(=O)O)c3ccccc3)C(=O)N2[C@H]1C(=O)O` (stereo partly specified) [CARBENICILLIN], in assay [1], the AC50 is greater than 30 µM.
`Clc1ccc(Cn2c(CN3CCCC3)nc3ccccc32)cc1` [CLEMIZOLE]: the half-maximal activity concentration (AC50) in assay [1] amounted to 0.86 µM.
Regarding `CCCNC(=O)NS(=O)(=O)c1ccc(Cl)cc1` [CHLORPROPAMIDE], the AC50 in assay [1] is greater than 30 µM.
On the same count and under the same terms, the value for `CN(CCOc1ccc(CC2SC(=O)NC2=O)cc1)c1ccccn1` (stereo unspecified) [ROSIGLITAZONE] was 13 µM; that for `CC(C(=O)O)c1ccc2oc(-c3ccc(Cl)cc3)nc2c1` (stereo unspecified) [BENOXAPROFEN] was greater than 30 µM.
Consider `CC(CN1c2ccccc2Sc2ccccc21)N(C)C` (stereo unspecified) [PROMETHAZINE], for which the AC50 in [2] is 0.7 µM; in assay [10], greater than 30 µM; in assay [1], 0.922 µM; in [3], greater than 30 µM; in assay [4], 11.3 µM; on Progesterone receptor it was greater than 30 µM. The AC50 on D(1A) dopamine receptor is 1.72 µM; in [5], greater than 30 µM; on D(3) dopamine receptor it was 0.46 µM; at Thromboxane A2 receptor [7], greater than 30 µM; at Prothrombin, greater than 30 µM; on Thromboxane A2 receptor [8] it was greater than 3 µM. Further, the AC50 (at Histamine H3 receptor; on Acetylcholinesterase; in assay [9]) was greater than 30 µM throughout.
In assay [1], `CNC[C@H](O)c1ccc(O)c(O)c1` [EPINEPHRINE] came in with an AC50 greater than 30 µM.
Compound `CC(=O)Nc1ccc(CC(=O)O)cc1` [ACTARIT] showed an AC50 in [1] greater than 30 µM.
Regarding `CCOc1nc2cccc(C(=O)O)c2n1Cc1ccc(-c2ccccc2-c2nnn[nH]2)cc1`, the AC50 in assay [1] was greater than 30 µM.
In the case of `S=P(N1CC1)(N1CC1)N1CC1` [THIOTEPA], the AC50 in assay [1] amounted to 9.6 µM.
`CNC(=C[N+](=O)[O-])NCCSCc1csc(CN(C)C)n1` [NIZATIDINE]: in assay [1], the AC50 is greater than 30 µM.
In [1], `CC[C@@H](CO)NC(=O)[C@@H]1C=C2c3cccc4c3c(cn4C)C[C@H]2N(C)C1` [METHYSERGIDE] gave an AC50 greater than 30 µM.
As for `CC(C)(O/N=C(\C(=O)N[C@@H]1C(=O)N2C(C(=O)[O-])=C(C[n+]3ccccc3)CS[C@H]12)c1csc(N)n1)C(=O)O` [CEFTAZIDIME], the AC50 in [1] is greater than 300 µM.
As to `CCC(=O)O[C@]1(C(=O)CCl)[C@@H](C)C[C@H]2[C@@H]3CCC4=CC(=O)C=C[C@]4(C)[C@@]3(F)[C@@H](O)C[C@@]21C` [CLOBETASOL PROPIONATE], in [1], the AC50 was greater than 30 µM.
For the compound `COc1cc(C(=O)NS(=O)(=O)c2ccccc2C)ccc1Cc1cn(C)c2ccc(NC(=O)OC3CCCC3)cc12` [ZAFIRLUKAST], the AC50 in assay [1] is greater than 30 µM.
As to `Cc1onc(-c2c(F)cccc2Cl)c1C(=O)N[C@@H]1C(=O)N2[C@@H]1SC(C)(C)[C@@H]2C(=O)O` [FLOXACILLIN], in assay [1], the AC50 is greater than 30 µM.
As for `CN1Cc2c(N)cccc2C(c2ccccc2)C1` (stereo unspecified) [NOMIFENSINE], the AC50 in assay [1] stood at 4.8 µM.
Turning to `CCCc1cc(=O)[nH]c(=S)[nH]1` [PROPYLTHIOURACIL], the AC50 in assay [1] was greater than 30 µM.
On to `Nc1c(CC(=O)O)cccc1C(=O)c1ccc(Br)cc1` [BROMFENAC], for which the AC50 (in [2]; in assay [1]; in assay [3]; in assay [4]; at Progesterone receptor; at D(1A) dopamine receptor) was greater than 30 µM in each case. Also, the AC50 (in assay [5]; at D(3) dopamine receptor; in [6]; on Thromboxane A2 receptor [7]; on Prothrombin; at Thromboxane A2 receptor [8]) was greater than 30 µM throughout. In addition, the AC50 (at Histamine H3 receptor; at Acetylcholinesterase; in assay [9]; on Mu-type opioid receptor) was greater than 30 µM in each case.
In [1], `Cn1cc(C(=O)[C@@H]2CCc3nc[nH]c3C2)c2ccccc21` [RAMOSETRON] returned an AC50 of 4.7 µM.

These data come from ChEMBL document CHEMBL5291721, “A preclinical secondary pharmacology resource illuminates target-adverse drug reaction associations of marketed drugs” (Nat Commun, 2023).
